Data on two compounds can be found in patent publication EP3521435A1, “A HIGH STRINGENCY SELECTION SYSTEM FOR PROTEIN EXPRESSION IN PROLINE-AUXOTROPHIC CELLS” (Bayer AG, priority 2018, dated 2019).

Test [1] has as its target T1, murine P5CS short isoform (Mus musculus, UniProt Q9Z110).
T1 sequence (Q9Z110 1-793 isoform Q9Z110-2): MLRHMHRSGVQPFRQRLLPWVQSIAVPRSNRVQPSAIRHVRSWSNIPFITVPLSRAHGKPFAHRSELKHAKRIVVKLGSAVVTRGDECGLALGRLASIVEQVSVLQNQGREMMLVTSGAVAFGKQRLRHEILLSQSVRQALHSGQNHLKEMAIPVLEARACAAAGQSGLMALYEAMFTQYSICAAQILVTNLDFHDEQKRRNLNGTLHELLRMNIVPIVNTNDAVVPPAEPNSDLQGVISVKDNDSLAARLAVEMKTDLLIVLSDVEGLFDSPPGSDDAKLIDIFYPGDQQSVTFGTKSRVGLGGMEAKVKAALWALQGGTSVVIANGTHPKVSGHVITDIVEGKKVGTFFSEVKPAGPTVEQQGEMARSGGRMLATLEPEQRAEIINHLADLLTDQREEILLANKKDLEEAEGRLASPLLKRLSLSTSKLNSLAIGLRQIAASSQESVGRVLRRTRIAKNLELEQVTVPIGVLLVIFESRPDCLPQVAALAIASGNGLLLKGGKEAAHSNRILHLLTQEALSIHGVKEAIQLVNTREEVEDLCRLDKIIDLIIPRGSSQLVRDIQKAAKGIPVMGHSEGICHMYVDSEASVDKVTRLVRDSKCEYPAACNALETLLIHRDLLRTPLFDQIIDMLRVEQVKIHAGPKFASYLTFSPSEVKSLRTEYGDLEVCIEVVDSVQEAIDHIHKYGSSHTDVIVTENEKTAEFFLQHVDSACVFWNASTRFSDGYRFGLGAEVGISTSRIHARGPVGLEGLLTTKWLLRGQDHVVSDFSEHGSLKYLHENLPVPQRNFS
The note with it: Hu et al.; cited from earlier work.

Test [2] relates to CHO-K1 cells. Nature of the test: Fed-batch fermentation in shake flasks of human IgG1 expressing stable cell populations. The format is cell-based, Chinese hamster. As to conditions: selected in CD-Fusion + 10 µg/ml Puromycin (pJF1576), non-selecting conditions; for Productivity profile: human IgG1. The text has this:
To test the performance of P5CS selection in combination with DHP in a production cell line development setting (i.e. only a single selection marker in expression vector), vectors with P5CS selection marker in place of Puromycin selection marker containing human IgG1 expression cassettes were generated and tested. For this experiment, the vector pJF1979 was taken as a reference, with Puromycin selection marker placed downstream of the human IgG1 expression cassette. For comparison, the vectors pJF1969 and pJF1970 were used, which contained short and long isoform of P5CS in place of Puromycin selection marker downstream of human IgG1 expression cassette. As control, vector pJF1576 from Example 8 was used, which contained both P5CS (upstream of human IgG1 expression cassette) and Puromycin (downstream of human IgG1 expression cassette) selection markers. […] The fed-batch was without pH control during cultivation and no additional glucose was fed apart from that present in feeding solutions. Table 22, Table 23 and Table 24 show viable cell density, viability and productivity profiles of cell populations cultured in fed-batch fermentation in shake flasks under non-selecting conditions (i.e. production medium containing proline and no additional selective agents like Puromycin or DHP) after inoculation at 3e5 viable cells/ml. […] Table 21: Cell viabilities determined post-transfection on day 21.

The test system of test [3] is CHO-K1 cells. The test is described as above. The format is cell-based, Chinese hamster. The note with it: non-selecting conditions; for Productivity profile: human IgG1.
Setting [4] is: Day 3 after inoculation, selected in CD-Fusion + 10 µg/ml Puromycin (pJF1576).
Setting [5] is: Day 3 after inoculation, selected in CD-Fusion + 10 µg/ml Puromycin (pJF1579).
Where [6] appears, read: Day 5 after inoculation, selected in CD-Fusion + 10 µg/ml Puromycin (pJF1579).
[7] abbreviates: Day 5 after inoculation, selected in CD-Fusion + 10 µg/ml Puromycin (pJF1576).
Setting [8] is: Day 7 after inoculation, selected in CD-Fusion + 10 µg/ml Puromycin (pJF1579).
The mark [9] stands for this setting: Day 10 after inoculation, selected in CD-Fusion + 10 µg/ml Puromycin (pJF1576).
Where [10] appears, read: Day 10 after inoculation, selected in CD-Fusion + 10 µg/ml Puromycin (pJF1579).
Setting [11] is: Day 12 after inoculation, selected in CD-Fusion + 10 µg/ml Puromycin (pJF1579).
Where [12] appears, read: Day 14 after inoculation, selected in CD-Fusion + 10 µg/ml Puromycin (pJF1576).
[13] abbreviates: Day 14 after inoculation, selected in CD-Fusion + 10 µg/ml Puromycin (pJF1579).

SMILES strings stand for the structures.

In the case of `NCCC[C@H](N)C(=O)O` [Orn, L-Ornithine], the Ki in test [1] is roughly 250 µM.

As to `COc1ccc(C[C@H](N)C(=O)N[C@H]2[C@@H](O)[C@H](n3cnc4c(N(C)C)ncnc43)O[C@@H]2CO)cc1` [Puromycin], the Productivity profile in the test on CHO-K1 cells [2] (Day 5 after inoculation) is 26.6 mg/L; in the test on CHO-K1 cells [2] (Day 7 after inoculation), 68.9 mg/L; in the test with CHO-K1 cells [2] (Day 12 after inoculation), 304.9 mg/L; in the test with CHO-K1 cells [3] (setting [4]), 13.6 mg/L; in the test on CHO-K1 cells [3] (setting [5]), 12.4 mg/L; in the test on CHO-K1 cells [3] (setting [6]), 24.4 mg/L. The Productivity profile in the test with CHO-K1 cells [3] (setting [8]) is given as 60.0 mg/L; in the test on CHO-K1 cells [3] (setting [9]), 182.0 mg/L; with CHO-K1 cells [3] (setting [10]), 155.1 mg/L; in the test with CHO-K1 cells [3] (setting [11]), 265.9 mg/L; in the test on CHO-K1 cells [3] (setting [12]), 442.2 mg/L; in the test with CHO-K1 cells [3] (setting [13]) it was 372.0 mg/L. Besides, the Viability profile turned out to be 99.3% in the test with CHO-K1 cells [2] (Day 7 after inoculation); 97.0% with CHO-K1 cells [2] (Day 10 after inoculation); 99.8% in the test on CHO-K1 cells [3] (Day 0 after inoculation, selected in CD-Fusion + 10 µg/ml Puromycin (pJF1576)); 99.8% in the test on CHO-K1 cells [3] (Day 0 after inoculation, selected in CD-Fusion + 10 µg/ml Puromycin (pJF1579)); 99.9% in the test with CHO-K1 cells [3] (setting [4]); 99.8% in the test with CHO-K1 cells [3] (setting [5]). The Viability profile with CHO-K1 cells [3] (setting [7]) came out at 99.8%; with CHO-K1 cells [3] (setting [6]) it was 99.9%; in the test with CHO-K1 cells [3] (setting [8]) it was 99.2%; in the test with CHO-K1 cells [3] (setting [10]) it was 97.9%; with CHO-K1 cells [3] (Day 12 after inoculation, selected in CD-Fusion + 10 µg/ml Puromycin (pJF1576)) it was 96.2%; with CHO-K1 cells [3] (setting [11]), 97.5%. For the same compound, the Viability profile with CHO-K1 cells [3] (setting [12]) is given as 86.2%; in the test with CHO-K1 cells [3] (setting [13]), 92.7%. Moreover, the “Viable cell density profile” value in the test with CHO-K1 cells [2] (Day 12 after inoculation) is reported as 9,1E +06 VCD/ml; in the test with CHO-K1 cells [3] (setting [4]), 1,4E +06 VCD/ml; in the test with CHO-K1 cells [3] (setting [5]), 1,8E +06 VCD/ml; in the test with CHO-K1 cells [3] (setting [7]), 4,8E +06 VCD/ml; in the test on CHO-K1 cells [3] (setting [6]), 5,6E +06 VCD/ml; with CHO-K1 cells [3] (Day 7 after inoculation, selected in CD-Fusion + 10 µg/ml Puromycin (pJF1576)), 9,5E +06 VCD/ml. In addition, the “Viable cell density profile” value is reported as 1,2E +07 VCD/ml in the test with CHO-K1 cells [3] (setting [8]); 1,2E +07 VCD/ml in the test with CHO-K1 cells [3] (setting [9]); 1,5E +07 VCD/ml in the test on CHO-K1 cells [3] (setting [10]); 1,0E +07 VCD/ml in the test with CHO-K1 cells [3] (setting [11]); 7,4E +06 VCD/ml in the test with CHO-K1 cells [3] (setting [12]); 9,7E +06 VCD/ml with CHO-K1 cells [3] (setting [13]).
